As a reminder, the IC50 is the concentration that inhibits the measured activity by half. Lower therefore signals inhibition by little substance.

This is an account of results in ChEMBL document CHEMBL1150417, “Discovery of novel small-molecule inhibitors of human epidermal growth factor receptor-2: combined ligand and target-based approach” (J Med Chem, 2008).

For experiment [1], the target named is Receptor tyrosine-protein kinase erbB-2 (Homo sapiens, UniProt P04626). The experiment in a line: Inhibition of HER2.
In experiment [2] the test system is SK-BR-3. The experiment in a line: Cytotoxicity against human SKBr3 cells after 72 hrs by MTT assay. The format is functional, cell-based. The settings on record: SK-BR-3, 72 h. (Tetrazolium dyes change colour on reduction, which living cells bring about.)
Experiment [3] relates to SK-BR-3. The experiment in a line: Cytotoxicity against human SKBR3 cells at 10 uM after 72 hrs by MTT assay. The format is functional.

Chain of Receptor tyrosine-protein kinase erbB-2 (P04626 whole entry): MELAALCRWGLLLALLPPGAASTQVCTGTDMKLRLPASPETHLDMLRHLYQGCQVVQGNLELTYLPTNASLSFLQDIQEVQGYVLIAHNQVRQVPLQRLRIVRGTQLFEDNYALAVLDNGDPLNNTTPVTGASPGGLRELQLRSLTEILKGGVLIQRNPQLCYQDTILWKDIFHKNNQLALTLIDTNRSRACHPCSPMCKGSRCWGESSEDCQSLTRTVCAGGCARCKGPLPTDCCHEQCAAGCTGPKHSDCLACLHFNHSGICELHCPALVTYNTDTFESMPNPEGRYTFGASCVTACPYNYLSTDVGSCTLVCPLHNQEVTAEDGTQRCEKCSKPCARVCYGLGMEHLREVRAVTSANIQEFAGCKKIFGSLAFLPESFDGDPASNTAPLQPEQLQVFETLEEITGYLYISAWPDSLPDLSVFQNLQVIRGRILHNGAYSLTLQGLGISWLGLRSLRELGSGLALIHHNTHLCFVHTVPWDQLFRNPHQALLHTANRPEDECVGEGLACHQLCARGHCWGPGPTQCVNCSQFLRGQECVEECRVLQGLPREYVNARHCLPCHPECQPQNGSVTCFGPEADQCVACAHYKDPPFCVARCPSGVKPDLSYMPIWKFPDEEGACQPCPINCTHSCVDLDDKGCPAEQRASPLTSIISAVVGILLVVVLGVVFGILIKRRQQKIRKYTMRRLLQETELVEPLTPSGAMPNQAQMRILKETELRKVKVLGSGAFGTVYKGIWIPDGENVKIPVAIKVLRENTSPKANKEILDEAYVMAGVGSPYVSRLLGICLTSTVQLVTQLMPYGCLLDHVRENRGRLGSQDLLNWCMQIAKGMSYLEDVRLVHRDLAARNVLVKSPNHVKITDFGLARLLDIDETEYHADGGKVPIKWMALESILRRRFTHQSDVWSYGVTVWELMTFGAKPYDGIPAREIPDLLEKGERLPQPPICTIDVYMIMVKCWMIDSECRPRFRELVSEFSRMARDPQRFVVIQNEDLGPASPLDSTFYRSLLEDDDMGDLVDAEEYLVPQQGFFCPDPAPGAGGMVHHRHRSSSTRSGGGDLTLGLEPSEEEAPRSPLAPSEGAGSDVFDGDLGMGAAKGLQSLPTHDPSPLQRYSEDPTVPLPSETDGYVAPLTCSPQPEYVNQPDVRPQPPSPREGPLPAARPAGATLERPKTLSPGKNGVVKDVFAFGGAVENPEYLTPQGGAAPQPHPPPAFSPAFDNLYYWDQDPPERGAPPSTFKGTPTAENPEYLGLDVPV

For the compound `CCCCn1c(S(=O)(=O)c2cc(OC)c(OC)c(OC)c2)nc2c(N)ncnc21`, in experiment [1], the IC50 turned out to be 310 µM. For `Nc1ncnc2nc(Sc3cc(Cl)ccc3Cl)[nH]c12`, the IC50 in experiment [1] came out at 120 µM. In the experiment on SK-BR-3 [2], `CCc1cc2c(NCCc3ccc(OC)c(OC)c3)ncnc2s1` returned an IC50 of 14 µM. Compound `Brc1ccc2ncnc(NCCc3ccccc3)c2c1` came in with an IC50 with SK-BR-3 [2] of 15 µM. `CS(=O)(=O)CCNCc1nc(-c2ccc3ncnc(Nc4ccc(OCc5cccc(F)c5)c(Cl)c4)c3c2)cs1`: in experiment [1], the IC50 turned out to be 0.01 µM.

`COc1ccc(CN(CC(=O)NC2CCCC2)C(=O)Cn2cnc3sc(C)c(C)c3c2=O)cc1`: the Activity in the experiment with SK-BR-3 [3] is 21%. With `CCc1ccccc1NC(=O)NCCCNc1nc2cc(C)cc(C)c2cc1C#N`, in the experiment on SK-BR-3 [3], the Activity worked out at 29%. In turn, `CCOC(=O)c1ccc(Nc2c([N+](=O)[O-])c(=O)oc3ccccc23)cc1` yielded an Activity in the experiment with SK-BR-3 [3] of 5%. For the compound `CCOc1ccc(OCC)c(NC(=O)CSc2nc3c(C)cccc3cc2C#N)c1`, the Activity in the experiment with SK-BR-3 [3] is 16%. For the compound `COc1ccc(NC(=O)Cn2nnc(-c3ccccc3NC(=O)c3cccs3)n2)cc1`, in the experiment on SK-BR-3 [3], the Activity was determined as 27%. Turning to `COc1ccc(-c2nc3cc(NC(=O)COc4ccc(C)cc4C)ccc3o2)cc1Br`, the Activity in the experiment on SK-BR-3 [3] is 32%. For the compound `Cc1ccc2[nH]cc(CCNC(=O)c3cccnc3)c2c1`, the Activity with SK-BR-3 [3] was 1%.

On to `CCOC(=O)c1ccc(Nc2cc(C)nc3ncnn23)cc1`, for which the Activity in the experiment with SK-BR-3 [3] is reported as 1%. On the same count and under the same terms, the figure for `Cc1cc2cc(CN(Cc3cccs3)C(=O)Nc3ccccc3F)c(=O)[nH]c2cc1C` is 19%; for `CCOC(=O)c1c(-c2ccccc2)csc1NC(=O)CSc1ncnc2sc3c(c12)CCCC3` it is 11%.

With `O=C(Nc1ccc(Oc2ccc3nsnc3c2)c(Cl)c1)c1cc(Cl)ccc1O`, the Activity in the experiment on SK-BR-3 [3] amounted to 30%.

Regarding `Cc1ccc2[nH]c(=O)c(CN(Cc3cccs3)C(=O)c3ccco3)cc2c1`, the Activity in the experiment on SK-BR-3 [3] turned out to be 22%. In the case of `CCC(C)(C)C1CCc2sc3ncnc(N/N=C(\C)c4ccc(OC)cc4)c3c2C1` (stereo unspecified), in the experiment with SK-BR-3 [3], the Activity came to 12%. Still for that read-out and setting: the figure for `Cc1cc(Nc2ccc(N3CCC(C)CC3)cc2)n2ncnc2n1` is 25%; for `O=C(CSc1ncnc2sc3c(c12)CCCC3)NCc1cccc2c1OCO2` it is 16%; for `O=C(CSc1ncnc2sc3c(c12)CCCC3)Nc1ccc(S(=O)(=O)N2CCCCCC2)cc1` it is 11%. In the experiment on SK-BR-3 [3], `CCOc1ccc(Nc2nc(NCCO)nc(C)c2[N+](=O)[O-])cc1` displayed an Activity of 32%. For `c1ccc(OCCOc2ccc(Nc3ccnc4cc5ccccc5cc34)cc2)cc1`, the IC50 in the experiment with SK-BR-3 [2] turned out to be 2 µM. For the compound `CN1CCN(c2ccc(Nc3ncnc4sc5c(c34)CCCC5)cc2)CC1`, the midpoint of inhibition in the experiment with SK-BR-3 [2], the IC50, lay at 9 µM. In the experiment with SK-BR-3 [3], `Cc1nc2cc(NCc3ccccc3O)ccc2n1Cc1ccccc1` gave an Activity of 13%. In turn, `c1cncc(CNc2ncnc3ccccc23)c1` displayed an Activity in the experiment on SK-BR-3 [3] of 15%. In the case of `COc1cccc(-c2cc3cc4c(c(NCc5cc(OC)c(OC)c(OC)c5)n3n2)CCC4)c1`, the Activity in the experiment with SK-BR-3 [3] was found to be 4%. In the experiment on SK-BR-3 [3], `O=C(Nc1cccc(NC(=O)c2ccc(Cl)cc2Cl)c1)c1cccnc1` gave an Activity of 2%. Consider `c1ccc(CCNc2ccnc3cc4ccccc4cc23)cc1`, for which the IC50 in the experiment with SK-BR-3 [2] worked out at 8 µM. Turning to `COc1ccc(CCNc2c(Cc3ccccc3)c(C)nc3ncnn23)cc1OC`, the Activity in the experiment with SK-BR-3 [3] came out at 21%. `COc1cccc(OC)c1C(=O)Nc1ccc2c(c1)OCC(=O)N2Cc1ccccc1Cl`: the Activity with SK-BR-3 [3] stood at 2%.

For `COc1cc(NC(=O)CSc2nnnn2-c2ccc3c(c2)OCCO3)cc(OC)c1`, in the experiment with SK-BR-3 [3], the Activity came out at 15%. Still for that read-out and setting: for `O=[N+]([O-])c1ccccc1-c1nnc(CSc2ncnc3sc4c(c23)CCCC4)o1` the value was 7%. In turn, `CCN(CC)c1ccc(NC(=O)CSc2ncnc3sc(C)c(C)c23)cc1C` registered an IC50 in the experiment on SK-BR-3 [2] of 16 µM. Still for that read-out and setting: the figure for `Fc1ccccc1CCNc1c2c(nc3ncnn13)CCCC2` is 14 µM. In the experiment on SK-BR-3 [2], `CCN(CC)CCNc1ccc(Nc2ccnc3cc4ccccc4cc23)cc1` showed an IC50 of 2 µM. On to `O=C(CSc1ncnc2sc3c(c12)CCC3)Nc1ccc(S(=O)(=O)N2CCOCC2)cc1`, for which, in the experiment with SK-BR-3 [3], the Activity is 12%. As to `c1ccc2c(NCCCNc3ncnc4ccccc34)ncnc2c1`, in the experiment with SK-BR-3 [3], the Activity is listed as 32%. In turn, `COc1cc2nccc(Nc3ccc(N4C(=O)c5ccc(Cl)cc5C4=O)c(C)c3)c2cc1OC` had an IC50 in experiment [1] of 1.7 µM. For `COc1ccc2nc(C)cc(Nc3ccc(Oc4ccc(Cl)cc4)c(Cl)c3)c2c1`, in the experiment on SK-BR-3 [2], the IC50 stood at 5 µM. `COc1ccc2[nH]c(=O)c(CN(CCc3cccc(C)c3)C(C)=O)cc2c1`: in the experiment with SK-BR-3 [3], the Activity came to 5%. As for `Cc1sc(NC(=O)CSc2ncnc3sc4c(c23)CCCC4)c(C#N)c1C`, the Activity in the experiment on SK-BR-3 [3] is recorded as 26%. `COc1cc(/C=N/Nc2ncnc3sc4c(c23)CCCC4)ccc1OCC(=O)Nc1ccccc1` displayed an Activity in the experiment on SK-BR-3 [3] of 32%.

As to `COc1ccc2nc(C)cc(Nc3ccc(Oc4ccc5ccccc5c4)c(Cl)c3)c2c1`, the midpoint of inhibition in the experiment with SK-BR-3 [2], the IC50, lay at 5 µM. The compound `O=C(Nc1ncnc2sc3c(c12)CCC3)c1cccs1` came in with an Activity with SK-BR-3 [3] of 20%. `O=C(NC1CCCC1)C(c1cccs1)N(C(=O)Cc1cccs1)c1ccc2c(c1)OCCO2` (stereo unspecified): the Activity in the experiment on SK-BR-3 [3] came out at 16%.

In the experiment with SK-BR-3 [3], `Cc1cc(O)nc(SCC(=O)Nc2ccc(C(=O)NC3CCCCC3)cc2)n1` yielded an Activity of 21%.

The compound `COc1ccc(CCNc2cc(-c3ccccc3)nc3ncnn23)cc1` had an IC50 with SK-BR-3 [2] of 9 µM. `CONC(=O)c1ccc(F)c(Nc2ncnn3cc(NC(=O)OCCCS(C)(=O)=O)c(C(C)C)c23)c1` had an IC50 in experiment [1] of 5.3 µM.

As to `Cc1nn(-c2ccccc2)c2sc(C(=O)N(CC(=O)NC3CCCC3)C3CC3)cc12`, the Activity with SK-BR-3 [3] turned out to be 22%. Turning to `O=C(CSc1ncnc2sc3c(c12)CCCC3)Nc1nc(-c2ccc(F)cc2)cs1`, the Activity in the experiment on SK-BR-3 [3] came out at 32%.

In the experiment on SK-BR-3 [3], `CCOc1ccc(Nc2c3c(nc4ncnn24)CCC3)cc1` came in with an Activity of 26%. Turning to `CC1CCc2c(sc3ncnc(NCc4ccco4)c23)C1` (stereo unspecified), in the experiment on SK-BR-3 [3], the Activity is 2%. As for `COc1cc(CNCc2cccnc2)ccc1OCc1ccccc1Cl`, in the experiment on SK-BR-3 [3], the Activity was determined as 1%.

`COC(=O)c1sc(NC(=O)CSc2nc(C3CC3)nc3sc4c(c23)CCCC4)nc1C` yielded an Activity in the experiment with SK-BR-3 [3] of 31%.

In the experiment on SK-BR-3 [3], `Clc1cc(Nc2c3ccccc3nc3ccccc23)ccc1Oc1ccc2ccccc2c1Br` displayed an Activity of 3%. In experiment [1], `c1ccc(Oc2ccc(Nc3ccnc4ccccc34)cc2)cc1` had an IC50 of 0.733 µM. `CCn1nnnc1SCC(=O)Nc1ccc(OCc2ccccc2)cc1` came in with an Activity in the experiment on SK-BR-3 [3] of 19%.

`O=C(CSc1ncnc2sc3c(c12)CCCC3)Nc1nc(-c2ccccc2)cs1` yielded an Activity with SK-BR-3 [3] of 34%. Same read-out and setting: the figure for `COc1cc(OCC(=O)Nc2cccc([N+](=O)[O-])c2)ccc1/C=N/Nc1ncnc2sc3c(c12)CCCC3` is 7%; for `Cc1ccc(-c2csc3ncnc(SCC(=O)Nc4nc(-c5ccccc5)cs4)c23)cc1` it is 33%. `CN1CCN(CCCNc2ccnc3cc4ccccc4cc23)CC1` returned an IC50 in the experiment on SK-BR-3 [2] of 15 µM. Regarding `Cc1ccc(S(=O)(=O)N(Cc2ccc3c(c2)OCO3)Cc2cc3ccc(C)c(C)c3[nH]c2=O)cc1`, in the experiment on SK-BR-3 [3], the Activity is 12%. The compound `Cc1cc2nc(CBr)c(-c3ccccc3)nc2cc1C` displayed an IC50 in experiment [1] of 21 µM.

In turn, `COCOCC#CC(=O)Nc1ccc2ncnc(Nc3cccc(Br)c3)c2c1` yielded an IC50 in experiment [1] of 0.009 µM.

In turn, `COCC(=O)NC/C=C/c1ccc2ncnc(Nc3ccc(Oc4ccc(C)nc4)c(C)c3)c2c1` [CP-724714] came in with an IC50 in experiment [1] of 0.012 µM.
